Where “and” joins values, the source holds several entries; their conditions need not be identical. Equal values may be shown once. Read-outs that look alike come from different tables or passages of the source.
Experiments:
[1] = tested on: WBCs; test: Recovery rate of cells after immobilization on streptavidin (SA) plate; type: cell-based; conditions: for Remarks (staining): staining of the cells by the molecule
Experimental: X=hydrophobic moiety, […]=fluorescein In the following experiment, the recovery rate of cells was determined.

[2] = tested on: WBC; test: WBC recovery rate after centrifugation (stabilization of cells); type: cell-based, human; conditions: for performance in WBC recovery rate after centrifugation (ranking): Centrifugation 20 min, 10 min, 1 h; for WBC recovery rate after centrifugation: dependence on molecule concentration: Centrifugation 10 min
Experimental: (§1) Centrifugation characteristics: 10 min, 300×g.
as §1
The respective left, middle and right columns per assay represent different Experimenters 1, 2 and 3. […] Centrifugation characteristics: 10 min, 300×g. Molecule: Cholesteryl-TEG-Cholesteryl-TEG-(SpacerC18)7-Fluos-Biotin-TEG.
Following molecules were tested: 1234: 5′-(Cholesteryl-TEG)2-Spacer C18-dT-Biotin-TEG-3′; 1248: 3′-(Cholesteryl-TEG)2-PEG2000-Fluos-Biotin-TEG-5′ INVERS; 1254: 3′-(Cholesteryl-TEG)2-SpacerC18-Fluos-Biotin-TEG-5′ INVERS; 1255: 3′-(Myristic acid)2-PEG2000-dT-Biotin-TEG-5′ INVERS. […] Centrifugation characteristics: 20 min, 300×g. Respective left column: 10 min incubation with molecule. Respective middle column: 1 h min incubation with molecule. Respective right column: 2 h incubation with molecule.
Following molecules were tested: 1255: 3′-(Myristic acid)2-PEG2000-dT-Biotin-TEG-5′ INVERS; 1234: 5′-(Cholesteryl-TEG)2-Spacer C18-dT-Biotin-TEG-3′; 1248: 3′-(Cholesteryl-TEG)2-PEG2000-Fluos-Biotin-TEG-5′ INVERS; 1254: 3′-(Cholesteryl-TEG)2-SpacerC18-Fluos-Biotin-TEG-5′ INVERS. […] Centrifugation characteristics: 20 min, 500×g. Respective left column: 10 min incubation with molecule. Respective middle column: 1 h min incubation with molecule. Respective right column: 3 h incubation with molecule.
Following molecules were tested: 1255: 3′-(Myristic acid)2-PEG2000-dT-Biotin-TEG-5′ INVERS; 1234: 5′-(Cholesteryl-TEG)2-Spacer C18-dT-Biotin-TEG-3′; 1248: 3′-(Cholesteryl-TEG)2-PEG2000-Fluos-Biotin-TEG-5′ INVERS; 1254: 3′-(Cholesteryl-TEG)2-SpacerC18-Fluos-Biotin-TEG-5′ INVERS. […] Centrifugation characteristics: 20 min, 1000×g. Respective left column: 10 min incubation with molecule. Respective middle column: 1 h min incubation with molecule. Respective right column: 2 h incubation with molecule.
Stabilization is typically determined on a population of cells, e.g. 2, 10, 100 or more cells, and the respective mean viability of the cell populations are compared. […] Viability may be determined by determining cell morphology, cell viability and/or cell recovery. Methods for determining cell morphology, cell viability and cell recovery are known in the art. […] For determining cell morphology, visual inspection by microscopy may be performed. For determining cell viability, a cell viability test using WST-1 proliferation kit (RAS) may be performed.

[3] = tested on: white blood cells (WBCs); conditions: 300,000 WBCs/well
Experimental: In particular, the performance of a single cholesterol-molecule and different dual-linker molecules (i.e. containing two hydrophobic moieties) was tested. In detail, immobilization of white blood cells (WBCs) on a Streptavidin-coated surface using different linker molecules was tested on a 12-well plate: 300,000 WBCs/well. This was followed by the measurement of the cell recovery rate after immobilization and washing of the cells using the Cellavista instrument (10×Nuclei Operator s9s5).

[4] = tested on: WBCs; test: Labelling (staining) of cells with labelled molecules; type: cell-based
Excerpt: (§2) As shown in the examples, a compound for use according to the invention, wherein the compound comprises a label moiety, is contacted with a cell. As labelling is preferably done with viable or potentially viable cells, the cells are typically present in an aqueous solution, which is preferably buffered and/or contains nutrients, e.g. the cells are suspended in PBS. The labeled compound for use according to the invention may be added to the cells, e.g. in form of a solution, e.g. as aqueous solution by methods known in the art, as pipetting.

[5] = tested on: Epithelial cells; test: as above; type: cell-based
Excerpt: as §2

[6] = tested on: WBC
Experimental: 4× determination. Row A: 200 μl PBS introduced, 1 nmol of compound added thereto respectively, mixed, incubated about 30 min, washed 2×PBS, 800 μl PBS introduced, 300.000 WBC (untreated) added. Row B: 800 μl PBS introduced, 300.000 WBC (untreated) added. Row C: 10×10^6 WBC in 1 ml with 10 nmol compound of invention 10 min incubated, 800 μl PBS/Well introduced, 300.000 treated WBC respectively. The first MTP plate washed after 30 min 2× with PBS, overlayed with Höchst and incubated for 15 min.>Cellavista (Operator s9s5) measured. The second plate was measured after 90 min. The third plate was measured after 150 min.
The experiments were performed for different incubation times, as shown below:
As starting material 5′-(Cholesteryl-TEG)2-PEG2000-Fluos-Biotin_TEG-3′ INVERS (14530 pmol/μl) (Internal Reference No.: 29.891250), and a streptavidin treated MTP (Microcoat), 12 Well plate were used.
Erythrocyte lysis was performed as follows:
EDTA-whole blood 59.423 6.400 WBC/μl (Ambulanz Roche)
lysis buffer: 100 mM NH4Cl+5 mM Hepes+0.5 mM KHCO3+0.1 mM EDTA-K
Ca 1×8 ml whole blood filled in 50 ml Falcon tube with lysis buffer, incubate at room temperature for 10 min
15 min at 250 g centrifugated, pellet resuspended by pipetting in and out in lysis buffer; filled to 50 ml with lysis buffer
15 min 250 g centrifugated, pellet resuspended with PBS, filled to 50 ml with PBS, 15 min 250 g centrifugated, filled to 50 ml with PBS
The design of the experiment on the plate is explained below (see FIG. 2):
Row A: 200 μl PBS introduced, 1 nmol of compound added thereto respectively, mixed, incubated about 30 min, washed 2× PBS, • 800 μl PBS introduced, 300.000 WBC (untreated) added.
Row B: 800 μl PBS introduced, 300.000 WBC (untreated) added.

[7] = 300×g, 2 h incubation with molecule
[8] = 500×g, 3 h incubation with molecule
[9] = Sample 1, compound concentration: 1 nmol/10e6 WBCs
[10] = Sample 1, first table, concentration not given
[11] = Sample 2, Compound Concentration: 100 pmol/10e6 WBCs
[12] = Sample 2, Compound Concentration: 1 nmol/10e6 WBCs

Compound: Biotin-PEG-Lys-(C14)2 [15.260268]
- Recovery Rate ([1]; 1.77 nmol/10e6 Cells): 85.72%

Compound: 3′-(Myristic acid)2-PEG2000-dT-Biotin-TEG-5′ INVERS [compound 1255]
- performance in WBC recovery rate after centrifugation (ranking) [2, 7]: followed by compound 1255 and 1254
- performance in WBC recovery rate after centrifugation (ranking) [2, 8]: followed by molecule 1255 and 1254

Compound: 5′-(Cholesterol-TEG)1-Doubler-dT-Biotin-3′ [29.891272]
- cell count per well [3, 9]: 199973 and 220701 and 228481
- cell count per well [3, 10]: 147132 and 179643 and 181620
- Mean (cell count) [3, 11]: 186316.33
- cell count per well [3, 11]: 161504 and 201424 and 196021
- Mean (cell count) [3, 12]: 247418.33
- cell count per well [3, 12]: 241232 and 254894 and 246129

Compound: 5′-CholesterylTEG-CholesterylTEG-(SpacerC18)7-Fluos-BiotinTEG-3′ [BMO 29.891222]
- WBC recovery rate after centrifugation: dependence on molecule concentration ([2]; 300×g): the higher the molecule concentration, the higher the cell recovery rate after centrifugation
- WBC recovery rate after centrifugation: dependence on molecule concentration ([2]; 300×g, listed as A): The higher the molecule concentration, the higher the cell recovery rate after centrifugation
- cell stabilization: dependence on the experimenter ([2]; Experimenters 1, 2 and 3, centrifugation 10 min, 300×g): independent on the experimenter

Compound: 5′-(Cholesteryl-TEG)2-Spacer C12-dT-Biotin_TEG-3′ INVERS [29.891253]
- cell count per well [3, 9]: 218861 and 221471 and 208802
- cell count per well [3, 10]: 105061 and 128195 and 139678
- Mean (cell count) [3, 11]: 187757.67
- cell count per well [3, 11]: 178919 and 197130 and 187224
- Mean (cell count) [3, 12]: 237052.33
- cell count per well [3, 12]: 239105 and 240632 and 231420

Compound: 5′-Myristic acid-SpacerC9-Myristic acid-PEG2000-Fluos-BiotinTEG-3′ [BMO 29.891197]
- Remarks (staining) [1]: weak

Compound: 5′-(Cholesteryl-TEG)2-Spacer C18-Fluos-Biotin_TEG-3′ INVERS [29.891254]
- cell count per well [3, 9]: 244649 and 234262 and 260760
- cell count per well [3, 10]: 157660 and 190148 and 170850
- Mean (cell count) [3, 11]: 197067.00
- cell count per well [3, 11]: 205917 and 185100 and 200184
- Mean (cell count) [3, 12]: 245376.00
- cell count per well [3, 12]: 247428 and 244396 and 244304
- performance in WBC recovery rate after centrifugation (ranking) [2, 7]: followed by compound 1255 and 1254
- performance in WBC recovery rate after centrifugation (ranking) [2, 8]: followed by molecule 1255 and 1254

Compound: Biotin-PEG-Lysin-(C18)2 [HH1750]
- WBC recovery rate after centrifugation: dependence on molecule concentration ([2]; 300×g): The higher the concentration of the molecule, the higher the cell recovery rate after centrifugation

Compound: 5′-Myristic acid-Myristic acid-(SpacerC18)7-Fluos-BiotinTEG-3′ [BMO 29.891214]
- Remarks (staining) [1]: strong

Compound: 5′-CholesterylTEG-CholesterylTEG-PEG2000-Fluos-BiotinTEG-3′ [BMO 29.891180]
- Remarks (staining) [1]: strong

Compound: 5′-Myristic acid-Myristic acid-SpacerC18-Fluos-BiotinTEG-3′ [BMO 29.891213]
- Remarks (staining) [1]: strong

Compound: 5′-(Cholesteryl-TEG)2-Spacer C18-dT-Biotin-TEG-3′ [compound 1234]
- performance in WBC recovery rate after centrifugation (ranking) [2, 7]: best performance
- performance in WBC recovery rate after centrifugation (ranking) [2, 8]: best performance

Compound: Biotin-PEG-Lysin-(C18)2 [HH1755]
- WBC recovery rate after centrifugation: dependence on molecule concentration ([2]; 300×g): The higher the concentration of the molecule, the higher the cell recovery rate after centrifugation

Compound: 5′-Myristic acid-Myristic acid-PEG2000-Fluos-BiotinTEG-3′ [BMO 29.891194]
- Remarks (staining) [1]: weak and stronger

Compound: CCCCCCCCCCCCCCCCCCCCCCN1/C(=C/C=C/c2oc3ccccc3[n+]2CCC)Oc2ccccc21.[I-] [PKH2]
- staining of cells by labelled molecule [4]: ✓
- staining of cells by labelled molecule [5]: ✓ not all

Compound: Sulfo-JA133-phenylboronic acid [BMO: 15.000078]
- staining of cells by labelled molecule [4]: ✓ not all
- staining of cells by labelled molecule [5]: ✓

Compound: 5′-(Cholesteryl-TEG)2-PEG2000-Fluos-Biotin_TEG-3′ INVERS [29.891250]
- MW (mean WBC count; target: 300.000 WBC) ([6]; 30 min, WBC treated): 231829.75
- WBC recovery rate [%] (Mean %) ([6]; 30 min, WBC treated: molecule + cells): 77.28%
- MW (mean WBC count; target: 300.000 WBC) ([6]; 30 min, Well treated): 64909
- WBC recovery rate [%] (Mean %) ([6]; 30 min, well treated: molecule bound to surface): 21.64%
- MW (mean WBC count; target: 300.000 WBC) ([6]; 90 min, WBC treated): 249346.25
- WBC recovery rate [%] (Mean %) ([6]; 90 min, WBC treated: molecule + cells, listed as molecule useful in methods of invention): 83.12% and 83.1%
- MW (mean WBC count; target: 300.000 WBC) ([6]; 90 min, Well treated): 142865
- WBC recovery rate [%] (Mean %) ([6]; 90 min, well treated: molecule bound to surface, listed as molecule useful in methods of invention): 47.62% and 47.6%
- MW (mean WBC count; target: 300.000 WBC) ([6]; 120 min, WBC treated): 258692.75
- WBC recovery rate [%] (Mean %) ([6]; 120 min, WBC treated: molecule + cells): 86.23%
- MW (mean WBC count; target: 300.000 WBC) ([6]; 120 min, Well treated): 171062.75
- WBC recovery rate [%] (Mean %) ([6]; 120 min, well treated: molecule bound to surface): 57.02%

Compound: Biotin-PEG-Lysin-(C18)2 [HH1749]
- WBC recovery rate after centrifugation: dependence on molecule concentration ([2]; 300×g): The higher the concentration of the molecule, the higher the cell recovery rate after centrifugation

From patent publication US11021472B2, “Use of compounds comprising two or more hydrophobic domains and a hydrophilic domain comprising PEG moieties for stabilization of a cell” (Roche Diagnostics Operations, Inc., priority 2013, dated 2021)
